In article PMC6576746, “Rational discovery of dual-indication multi-target PDE/Kinase inhibitor for precision anti-cancer therapy using structural systems pharmacology” (PLoS Computational Biology, 2019):

Tests used:
Assay in all cases: biochemical
Design in all cases: DiscoverX KinomeScan competition binding assay across human kinases; per cent of control at 10 and 100 uM
[1] = target: AKT2 (Homo sapiens, UniProt P31751); conditions: competition binding, % of control; read-out: Percent Control (100 uM Levosimendan)
How it was run: (§1)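 KinomeScan competition binding was run across a human kinase panel at 10 μM and 100 μM levosimendan. Results are %control = (test − positive control)/(negative control − positive control) × 100.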

[2] = target: T1, AMPK-alpha2 (Homo sapiens, UniProt P54646); conditions: competition binding, % of control; read-out: Percent Control (100 uM Levosimendan)
T1 construct: gene PRKAA2
T1 sequence (P54646 whole entry): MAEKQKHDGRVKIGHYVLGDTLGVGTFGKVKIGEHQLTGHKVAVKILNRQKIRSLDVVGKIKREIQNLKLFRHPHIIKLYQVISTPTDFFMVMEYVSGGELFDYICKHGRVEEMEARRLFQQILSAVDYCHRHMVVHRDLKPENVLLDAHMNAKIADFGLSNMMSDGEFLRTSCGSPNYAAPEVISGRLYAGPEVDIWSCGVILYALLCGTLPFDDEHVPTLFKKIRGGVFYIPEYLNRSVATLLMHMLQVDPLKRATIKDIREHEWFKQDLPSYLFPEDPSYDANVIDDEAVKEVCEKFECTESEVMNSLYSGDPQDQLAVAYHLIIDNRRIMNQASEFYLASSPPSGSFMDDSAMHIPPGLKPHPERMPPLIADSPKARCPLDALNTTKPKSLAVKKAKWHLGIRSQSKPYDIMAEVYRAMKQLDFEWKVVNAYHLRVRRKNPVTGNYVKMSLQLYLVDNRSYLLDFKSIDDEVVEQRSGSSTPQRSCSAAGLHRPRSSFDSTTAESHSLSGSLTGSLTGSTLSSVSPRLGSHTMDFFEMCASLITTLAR
How it was run: as §1

[3] = target: T2, CTK (Homo sapiens, UniProt P42679); conditions: competition binding, % of control; read-out: Percent Control (100 uM Levosimendan)
T2 construct: gene MATK
T2 sequence (P42679 whole entry): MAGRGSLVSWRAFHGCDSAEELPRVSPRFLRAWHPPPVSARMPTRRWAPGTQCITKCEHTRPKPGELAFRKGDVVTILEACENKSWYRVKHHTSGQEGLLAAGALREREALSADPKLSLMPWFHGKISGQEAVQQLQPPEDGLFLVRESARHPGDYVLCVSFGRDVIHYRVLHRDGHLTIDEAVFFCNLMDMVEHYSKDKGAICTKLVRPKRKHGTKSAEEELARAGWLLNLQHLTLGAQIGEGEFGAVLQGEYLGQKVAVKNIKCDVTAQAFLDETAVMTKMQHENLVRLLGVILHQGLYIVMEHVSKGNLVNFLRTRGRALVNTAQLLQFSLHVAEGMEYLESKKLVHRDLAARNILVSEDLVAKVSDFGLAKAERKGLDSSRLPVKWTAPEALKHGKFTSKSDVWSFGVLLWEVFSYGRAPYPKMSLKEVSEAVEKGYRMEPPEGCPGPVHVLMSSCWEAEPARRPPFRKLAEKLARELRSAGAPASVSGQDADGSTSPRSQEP
How it was run: as §1

[4] = target: EGFR(T790M) (Homo sapiens, UniProt P00533, T790M); conditions: competition binding, % of control
Chain of EGFR(T790M) (P00533 whole entry T790M): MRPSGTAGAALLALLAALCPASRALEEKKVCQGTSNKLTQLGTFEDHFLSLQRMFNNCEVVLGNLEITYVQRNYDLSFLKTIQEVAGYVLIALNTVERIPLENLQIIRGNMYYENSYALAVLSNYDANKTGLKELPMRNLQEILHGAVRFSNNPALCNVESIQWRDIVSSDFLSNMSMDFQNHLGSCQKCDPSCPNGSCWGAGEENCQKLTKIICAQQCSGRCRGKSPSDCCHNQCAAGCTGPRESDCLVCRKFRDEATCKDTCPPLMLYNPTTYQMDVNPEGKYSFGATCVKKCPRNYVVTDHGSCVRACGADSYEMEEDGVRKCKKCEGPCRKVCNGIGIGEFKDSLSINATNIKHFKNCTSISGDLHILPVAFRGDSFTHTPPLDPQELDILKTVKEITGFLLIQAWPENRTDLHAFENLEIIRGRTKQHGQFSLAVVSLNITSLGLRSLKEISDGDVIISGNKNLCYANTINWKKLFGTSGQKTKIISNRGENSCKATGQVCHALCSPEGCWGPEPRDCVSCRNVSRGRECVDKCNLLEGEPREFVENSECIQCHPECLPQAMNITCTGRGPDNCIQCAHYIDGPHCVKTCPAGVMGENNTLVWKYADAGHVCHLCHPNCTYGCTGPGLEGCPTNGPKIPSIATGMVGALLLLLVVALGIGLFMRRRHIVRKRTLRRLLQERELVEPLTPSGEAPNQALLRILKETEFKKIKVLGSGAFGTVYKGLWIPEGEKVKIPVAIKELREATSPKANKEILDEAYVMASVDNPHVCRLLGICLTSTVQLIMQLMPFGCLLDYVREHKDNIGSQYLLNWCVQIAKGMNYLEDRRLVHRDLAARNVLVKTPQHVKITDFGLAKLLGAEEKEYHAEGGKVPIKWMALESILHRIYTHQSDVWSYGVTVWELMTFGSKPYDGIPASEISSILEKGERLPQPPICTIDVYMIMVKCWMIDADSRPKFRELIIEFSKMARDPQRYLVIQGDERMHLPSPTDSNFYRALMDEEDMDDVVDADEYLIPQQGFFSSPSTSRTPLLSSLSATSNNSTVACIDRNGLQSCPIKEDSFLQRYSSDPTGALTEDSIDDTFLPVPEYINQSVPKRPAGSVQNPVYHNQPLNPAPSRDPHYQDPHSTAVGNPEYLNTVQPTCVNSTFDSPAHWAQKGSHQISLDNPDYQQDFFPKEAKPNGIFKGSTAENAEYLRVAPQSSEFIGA
How it was run: as §1

[5] = target: EPHA2 (Homo sapiens, UniProt P29317); conditions: competition binding, % of control; read-out: Percent Control (100 uM Levosimendan)
Chain of EPHA2 (P29317 whole entry): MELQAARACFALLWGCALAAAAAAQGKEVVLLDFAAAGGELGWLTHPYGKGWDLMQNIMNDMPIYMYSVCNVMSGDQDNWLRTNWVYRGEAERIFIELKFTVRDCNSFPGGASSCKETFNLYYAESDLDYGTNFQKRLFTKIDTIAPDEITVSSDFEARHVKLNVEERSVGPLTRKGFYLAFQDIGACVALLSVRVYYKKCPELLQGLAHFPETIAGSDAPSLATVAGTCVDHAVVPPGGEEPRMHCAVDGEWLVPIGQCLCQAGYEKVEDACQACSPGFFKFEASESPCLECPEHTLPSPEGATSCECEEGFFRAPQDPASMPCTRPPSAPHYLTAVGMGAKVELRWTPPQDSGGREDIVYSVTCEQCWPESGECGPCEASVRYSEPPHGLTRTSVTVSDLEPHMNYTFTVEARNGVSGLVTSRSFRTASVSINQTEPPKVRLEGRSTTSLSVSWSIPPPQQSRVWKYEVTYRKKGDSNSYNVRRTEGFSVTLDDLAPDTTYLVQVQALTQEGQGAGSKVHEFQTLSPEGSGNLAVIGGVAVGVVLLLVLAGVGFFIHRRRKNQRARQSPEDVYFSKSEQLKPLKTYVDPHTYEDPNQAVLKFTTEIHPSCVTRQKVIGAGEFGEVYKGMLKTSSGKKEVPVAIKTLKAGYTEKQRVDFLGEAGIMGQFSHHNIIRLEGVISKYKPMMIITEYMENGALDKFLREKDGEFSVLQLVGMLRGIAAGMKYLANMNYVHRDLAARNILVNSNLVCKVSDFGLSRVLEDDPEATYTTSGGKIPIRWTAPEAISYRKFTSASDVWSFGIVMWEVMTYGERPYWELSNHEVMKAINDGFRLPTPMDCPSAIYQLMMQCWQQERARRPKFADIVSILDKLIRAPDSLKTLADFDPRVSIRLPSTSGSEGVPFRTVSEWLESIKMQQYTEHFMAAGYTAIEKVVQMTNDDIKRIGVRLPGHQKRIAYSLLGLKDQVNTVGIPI
How it was run: as §1

[6] = target: EPHA4 (Homo sapiens, UniProt P54764); conditions: competition binding, % of control; read-out: Percent Control (100 uM Levosimendan)
How it was run: as §1

[7] = target: GRK3 (Homo sapiens, UniProt P35626); conditions: competition binding, % of control; read-out: Percent Control (100 uM Levosimendan)
How it was run: as §1

[8] = target: MAK (Homo sapiens, UniProt P20794); conditions: competition binding, % of control; read-out: Percent Control (100 uM Levosimendan)
How it was run: as §1

[9] = target: T3, MINK (Homo sapiens, UniProt Q8N4C8); conditions: competition binding, % of control
T3 construct: gene MINK1
T3 sequence (Q8N4C8 whole entry): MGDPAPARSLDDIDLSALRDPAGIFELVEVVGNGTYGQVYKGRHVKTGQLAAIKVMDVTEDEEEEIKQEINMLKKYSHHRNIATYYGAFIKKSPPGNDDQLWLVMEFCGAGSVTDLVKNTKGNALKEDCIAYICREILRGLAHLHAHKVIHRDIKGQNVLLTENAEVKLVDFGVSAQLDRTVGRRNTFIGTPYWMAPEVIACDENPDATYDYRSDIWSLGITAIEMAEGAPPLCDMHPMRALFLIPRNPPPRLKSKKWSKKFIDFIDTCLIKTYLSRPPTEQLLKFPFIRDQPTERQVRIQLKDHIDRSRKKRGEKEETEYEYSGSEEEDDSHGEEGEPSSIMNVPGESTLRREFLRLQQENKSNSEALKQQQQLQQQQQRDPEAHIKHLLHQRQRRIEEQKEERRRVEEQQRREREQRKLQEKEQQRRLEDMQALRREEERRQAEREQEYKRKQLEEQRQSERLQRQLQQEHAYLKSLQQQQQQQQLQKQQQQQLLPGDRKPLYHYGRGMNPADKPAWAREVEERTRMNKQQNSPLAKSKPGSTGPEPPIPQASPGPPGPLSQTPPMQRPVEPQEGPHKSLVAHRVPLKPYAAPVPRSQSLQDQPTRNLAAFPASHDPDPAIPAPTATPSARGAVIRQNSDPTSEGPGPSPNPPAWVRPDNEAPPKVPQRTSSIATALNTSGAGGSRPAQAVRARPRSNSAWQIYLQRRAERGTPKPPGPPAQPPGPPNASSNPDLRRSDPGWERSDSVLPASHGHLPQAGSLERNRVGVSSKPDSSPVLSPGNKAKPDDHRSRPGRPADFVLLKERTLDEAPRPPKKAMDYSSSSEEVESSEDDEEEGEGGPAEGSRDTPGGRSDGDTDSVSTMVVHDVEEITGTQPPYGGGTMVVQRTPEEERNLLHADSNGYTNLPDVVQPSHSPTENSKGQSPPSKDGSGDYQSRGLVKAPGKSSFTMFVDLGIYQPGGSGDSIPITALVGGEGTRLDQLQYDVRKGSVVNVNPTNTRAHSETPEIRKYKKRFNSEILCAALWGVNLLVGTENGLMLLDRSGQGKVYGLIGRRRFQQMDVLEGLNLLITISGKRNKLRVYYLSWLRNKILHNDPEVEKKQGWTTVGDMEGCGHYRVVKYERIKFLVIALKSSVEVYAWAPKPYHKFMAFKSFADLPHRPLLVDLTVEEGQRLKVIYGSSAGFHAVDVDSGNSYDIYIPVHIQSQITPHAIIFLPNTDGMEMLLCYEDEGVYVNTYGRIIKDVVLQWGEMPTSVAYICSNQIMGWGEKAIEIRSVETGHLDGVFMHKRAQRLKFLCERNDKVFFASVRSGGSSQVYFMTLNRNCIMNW
How it was run: as §1

[10] = target: T4, MYLK4 (Homo sapiens, UniProt Q86YV6); conditions: competition binding, % of control
T4 sequence (Q86YV6 1-388): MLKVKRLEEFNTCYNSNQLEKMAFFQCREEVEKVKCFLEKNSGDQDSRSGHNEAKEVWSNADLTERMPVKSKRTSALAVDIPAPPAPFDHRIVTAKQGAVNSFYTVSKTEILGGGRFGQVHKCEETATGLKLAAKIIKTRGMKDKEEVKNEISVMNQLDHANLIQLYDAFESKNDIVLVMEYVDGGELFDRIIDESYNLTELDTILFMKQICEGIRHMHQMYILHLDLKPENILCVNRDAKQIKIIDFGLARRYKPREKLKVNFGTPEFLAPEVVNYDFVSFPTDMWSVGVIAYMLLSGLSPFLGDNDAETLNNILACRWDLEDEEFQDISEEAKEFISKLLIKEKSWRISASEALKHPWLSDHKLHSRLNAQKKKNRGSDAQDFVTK
How it was run: as §1

[11] = target: T5, PCTK1 (Homo sapiens, UniProt Q00536); conditions: competition binding, % of control; read-out: Percent Control (100 uM Levosimendan)
T5 construct: gene CDK16
How it was run: as §1

[12] = target: T6, PCTK3 (Homo sapiens, UniProt Q07002); conditions: competition binding, % of control; read-out: Percent Control (100 uM Levosimendan)
T6 construct: gene CDK18
T6 sequence (Q07002 whole entry): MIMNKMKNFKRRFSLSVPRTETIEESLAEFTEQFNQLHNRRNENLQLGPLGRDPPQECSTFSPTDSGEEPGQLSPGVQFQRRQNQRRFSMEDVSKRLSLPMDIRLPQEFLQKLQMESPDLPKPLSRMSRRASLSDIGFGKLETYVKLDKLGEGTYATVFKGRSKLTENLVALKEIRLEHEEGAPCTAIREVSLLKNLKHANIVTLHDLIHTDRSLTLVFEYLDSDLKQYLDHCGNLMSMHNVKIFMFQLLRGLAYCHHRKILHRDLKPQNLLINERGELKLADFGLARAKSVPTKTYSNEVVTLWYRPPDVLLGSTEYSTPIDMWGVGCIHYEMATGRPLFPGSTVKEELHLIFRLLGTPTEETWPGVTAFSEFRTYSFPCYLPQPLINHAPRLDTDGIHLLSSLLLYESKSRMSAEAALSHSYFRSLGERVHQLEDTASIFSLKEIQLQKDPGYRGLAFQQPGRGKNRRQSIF
How it was run: as §1

[13] = target: PIK3CA(Q546K) (Homo sapiens, UniProt P42336, Q546K); conditions: competition binding, % of control; read-out: Percent Control (100 uM Levosimendan)
How it was run: as §1

[14] = target: PRKCE (Homo sapiens, UniProt Q02156); conditions: competition binding, % of control; read-out: Percent Control (100 uM Levosimendan)
How it was run: as §1

[15] = target: ROCK1 (Homo sapiens, UniProt Q13464); conditions: competition binding, % of control; read-out: Percent Control (100 uM Levosimendan)
How it was run: as §1

[16] = target: SYK (Homo sapiens, UniProt P43405); conditions: competition binding, % of control; read-out: Percent Control (100 uM Levosimendan)
How it was run: as §1

[17] = read-out: Percent Control (10 uM Levosimendan)
[18] = read-out: Percent Control (100 uM Levosimendan)

C[C@@H]1CC(=O)NN=C1c1ccc(NN=C(C#N)C#N)cc1 [levosimendan]
remaining binding at 100 µM [1]: 64%
remaining binding at 100 µM [2]: 83%
remaining binding at 100 µM [3]: 72%
remaining binding at 10 µM [4, 17]: 88%
remaining binding at 100 µM [4, 18]: 31%
remaining binding at 100 µM [5]: 76%
remaining binding at 100 µM [6]: 82%
remaining binding at 100 µM [7]: 100%
remaining binding at 100 µM [8]: 100%
remaining binding at 10 µM [9, 17]: 77%
remaining binding at 100 µM [9, 18]: 26%
remaining binding at 10 µM [10, 17]: 85%
remaining binding at 100 µM [10, 18]: 24%
remaining binding at 100 µM [11]: 88%
remaining binding at 100 µM [12]: 100%
remaining binding at 100 µM [13]: 100%
remaining binding at 100 µM [14]: 100%
remaining binding at 100 µM [15]: 90%
remaining binding at 100 µM [16]: 78%
